{"source": "patent US11607557B2", "about": "“Devices and systems for treating pain based on light therapy” (Arizona Board of Regents on Behalf of the University of …, priority 2016, dated 2023)", "key": {"[1]": {"test_system": "green LED-induced antinociception", "test": "Paw withdrawal latency (Hargreaves) after antagonists in green LED exposed naïve rats", "type": "in vivo, rat", "source_text": "Pathogen-free, adult male and female Sprague-Dawley as well as male Long Evans rats (weight at testing 250-350 g; Harlan-Sprague-Dawley, Indianapolis, Ind.) were housed in a climate-controlled room on a 12-h light/dark cycle and were allowed to have food and water ad libitum. All procedures were approved by the University of Arizona Animal Care and Use Committee and conform to the guidelines for the use of laboratory animals of the National Institutes of Health (publication no, 80-23, 1966). All behavioral experiments were conducted by experimenters blinded to the treatment conditions.\nAll visible spectrum LED flex strips were purchased from ledsupply.com (VT, USA). The specification of the LED were: (i) #LS-AC60-6-BL, 472 nanometer wavelength (i.e., blue), 8 watts, 120 Volts, 120 degree beam angle; (ii) #LS-AC60-6-GR, 525 nanometer wavelength (i.e., green), 8 watts, 120 Volts, 120 degree beam angle; and (iii) #LS-AC60-66-WH, white, 9.6 watts, 120 Volts, 120 degree beam angle. LED strips were affixed to the outside of clear plastic cages that housed the rats so as to avoid the strips from being chewed. Rats were exposed to the various LED in these cages with full access to food and water in a dark room devoid of any other source of light. Following behavioral assessment, the rats were returned to their cages for additional LED exposure. At the end of daily testing, the rats were returned to their regular animal room where they were exposed to regular room light (regular florescent bulbs). A lux meter (Tondaj LX1010B, Amazon.com) was used to determine the illuminance and luminous emittance of the LED strips.\n(§1) The method of Hargreaves et al. was used. Rats were acclimated within Plexiglas enclosures on a clear glass plate maintained at 30° C. A radiant heat source (high-intensity projector lamp) was focused onto the plantar surface of the hind paw. When the paw was withdrawn, a motion detector halted the stimulus and a timer. A maximal cutoff of 33.5 sec was used to prevent tissue damage.\nFor intrathecal drug administration, rats were chronically implanted with catheters as described by Yaksh and Rudy. Rats were anesthetized with isoflurane and placed in a stereotactic device. The occipital muscles were separated from their occipital insertion and retracted caudally to expose the cisternal membrane at the base of the skull. Polyethylene tubing was passed caudally from the cisterna magna to the level of the lumbar enlargement. Animals were allowed to recover and were examined for evidence of neurologic injury. Animals with evidence of neuromuscular deficits were excluded.\nThe antinociceptive effects of green LED indicates a possible involvement of endogenous mediators linked to pain, such as opioids and cannabinoids. To test this hypothesis naïve rats exposed to green LED for eight hours daily for five days were administered antagonists and then PWLs were measured 20-30 minutes later.\nThus, to elucidate the role of die adrenergic system, several adrenergic receptors antagonists were tested. […] Additionally, rats exposed to green LED maintained regular grooming behaviors, which is in contrast to diminished grooming observed in stressed rats."}, "[2]": {"conditions": "calcium indicator, λex 340, 380 nm; cited from earlier work"}, "[3]": {"test_system": "rostral ventromedial medulla (RVM)", "test": "Lidocaine microinjection into the RVM, paw withdrawal latency in green LED exposed rats", "type": "in vivo, rat", "conditions": "2% lidocaine microinjected into the RVM of naïve rats exposed to green LED", "experimental": "as §1\nRats received a bilateral guide cannula (26 GA, #C235-1.2 mm, Plastics One Inc.) directed to the RVM. The cannula was placed at: −11.0 from bregma, −7.5 mm from the dura and 0.6 mm on either side of the midline. Injections were made by expelling 0.5 μl through an injection cannula protruding 1 mm beyond the tip of the guide. Cannula placement was confirmed with 0.5 μl Evans Blue injected into both sides of the cannula and microscopic examination of medullary sections. Acute single injections into the RVM were performed by inserting an injector (Plastics One Inc) attached to a 2 μl Hamilton syringe and expelling 0.5 μl at the same coordinates.\nNeurons within the rostral ventromedial medulla (RVM) have been reported to project to the spinal or medullary dorsal horns to directly or indirectly enhance or diminish nociceptive traffic. As this descending modulatory circuit is “opioid-sensitive”, next the contribution of the RVM in the green LED-induced antinociceptive response was examined."}, "[4]": {"test_system": "rats", "test": "HIV sensory neuropathy model, mechanical allodynia (von Frey test)", "type": "in vivo, rat", "conditions": "intrathecal gp120, 300 ng, compared to pre-gp120 baseline", "experimental": "The assessment of tactile allodynia (i.e., a decreased threshold to paw withdrawal after probing with normally innocuous mechanical stimuli) consisted of testing the withdrawal threshold of the paw in response to probing with a series of calibrated fine (von Frey) filaments. Each filament was applied perpendicularly to the plantar surface of the paw of rats held in suspended wire mesh cages. Withdrawal threshold was determined by sequentially increasing and decreasing the stimulus strength (the “up and down” method), and data were analyzed with the nonparametric method of Dixon, as described by Chaplan et al and expressed as the mean withdrawal threshold.\n(§2) Thermal hyperalgesia and mechanical allodynia are produced by intrathecal administration of the human immunodeficiency virus-1 (HIV-1) envelope glycoprotein, gp120 [60]. Seven days after implantation of an intrathecal catheter, baseline behavioral measurements were obtained and then rats were randomly assigned to two groups. On days 10 and 13, one group of rats were injected i.t. with 300 ng gp120 in a final volume of 20 µl in 0.9% saline while the other group were injected in a similar fashion with 0.9% saline."}, "[5]": {"test_system": "rats", "test": "HIV sensory neuropathy model, thermal hyperalgesia (Hargreaves test)", "type": "in vivo, rat", "conditions": "intrathecal gp120, 300 ng", "experimental": "as §1, §2"}, "[6]": {"conditions": "cannabinoid receptor antagonists, systemic (i.p.) 1 mg/kg, green LED eight hours daily for five days, 1 mg/kg"}, "[7]": {"conditions": "intrathecal (i.t.), 20 μg, green LED eight hours daily for five days, PWL 20-30 minutes after antagonist"}, "[8]": {"conditions": "alpha- and beta-adrenergic receptor antagonists, i.p. (doses in Table 1), green LED exposed rats"}}, "note": "Entries after “also recorded” stand apart in the source; their conditions may differ."}
{"molecule": "Cc1c(C(=O)NN2CCCCC2)nn(-c2ccc(Cl)cc2Cl)c1-c1ccc(I)cc1", "note": "[AM251]", "values": [{"measurement": "effect on green LED-induced antinociception (paw withdrawal latency)", "setting": "[1]; [6]", "result": "reversed the green LED-induced antinociception; also recorded: reversed green LED-induced thermal analgesia"}]}
{"molecule": "COc1ccc(C(=O)c2c(C)n(CCN3CCOCC3)c3cc(I)ccc23)cc1", "note": "[AM630]", "values": [{"measurement": "effect on green LED-induced antinociception (paw withdrawal latency)", "setting": "[1]; [6]", "result": "unaffected"}]}
{"molecule": "CC(=O)OCOC(=O)CN(CC(=O)OCOC(C)=O)c1ccc(C)cc1OCCOc1cc2cc(-c3ncc(C(=O)OCOC(C)=O)o3)oc2cc1N(CC(=O)OCOC(C)=O)CC(=O)OCOC(C)=O", "note": "[Fura-2AM]", "values": [{"measurement": "Kd", "setting": "[2]", "result": 25, "unit": "µM"}]}
{"molecule": "C=CCN1CC[C@]23c4c5ccc(O)c4O[C@H]2C(=O)CC[C@@]3(O)[C@H]1C5", "note": "[Naloxone]", "values": [{"measurement": "effect on green LED-induced antinociception (paw withdrawal latency)", "setting": "[1]; [7]", "result": "reversed, to baseline levels"}, {"measurement": "effect on green LED-induced antinociception (paw withdrawal latency)", "setting": "[1]; intrathecal (i.t.), 20 μg, green LED eight hours daily for five days, PWL 20-30 minutes after antagonist, listed as naloxone", "result": "reversed green LED-induced thermal analgesia"}, {"measurement": "effect on green LED-induced antinociception (paw withdrawal latency)", "setting": "[1]; naloxone systemic (printed subcutaneous / 20 mg/kg i.p.), green LED eight hours daily for five days, PWL 20-30 minutes after antagonist, 20 mg/kg", "result": "reversed, to baseline levels"}, {"measurement": "effect on green LED-induced antinociception (paw withdrawal latency)", "setting": "[1]; naloxone systemic (printed subcutaneous / 20 mg/kg i.p.), green LED eight hours daily for five days, PWL 20-30 minutes after antagonist, listed as naloxone, 20 mg/kg", "result": "reversed green LED-induced thermal analgesia"}]}
{"molecule": "CC(COc1ccccc1)N(CCCl)Cc1ccccc1", "note": "(centres unmarked) [Phenoxybenzamine]", "values": [{"measurement": "effect on green LED-induced antinociception (paw withdrawal latency)", "setting": "[1]; [8]", "result": "failed to prevent or reverse the antinociceptive effect of green LED; also recorded: failed to reverse green LED-induced thermal analgesia"}]}
{"molecule": "Cc1ccc(N(CC2=NCCN2)c2cccc(O)c2)cc1", "note": "[Phentolamine]", "values": [{"measurement": "effect on green LED-induced antinociception (paw withdrawal latency)", "setting": "[1]; [8]", "result": "failed to prevent or reverse the antinociceptive effect of green LED; also recorded: failed to reverse green LED-induced thermal analgesia"}]}
{"molecule": "CCN(CC)CC(=O)Nc1c(C)cccc1C", "note": "[lidocaine]", "values": [{"measurement": "effect on green LED-induced antinociception (paw withdrawal latency)", "setting": "[3]", "result": "prevented the subsequent development of antinociception; also recorded: reversed green LED-induced thermal analgesia"}]}
{"molecule": "CN1CC[C@]23c4c5ccc(O)c4O[C@H]2[C@@H](O)C=C[C@H]3[C@H]1C5", "note": "[morphine]", "values": [{"measurement": "effect on green LED-induced antinociception (paw withdrawal latency)", "setting": "[1]; [7]", "result": "reversed the antinociception"}]}
{"molecule": "CC(C)NCC(O)COc1cccc2ccccc12", "note": "(centres unmarked) [propranolol]", "values": [{"measurement": "effect on green LED-induced antinociception (paw withdrawal latency)", "setting": "[1]; [8]", "result": "failed to prevent or reverse the antinociceptive effect of green LED; also recorded: failed to reverse green LED-induced thermal analgesia"}]}
{"molecule": "gp120: viral envelope glycoprotein 120 of HIV-1, recombinant HIV-1 IIIB gp120, NIH AIDS Reagent Program", "values": [{"measurement": "mechanical allodynia (paw withdrawal threshold)", "setting": "[4]", "result": "lowered thresholds for paw withdrawals compared to baseline"}, {"measurement": "thermal hyperalgesia (paw withdrawal latency)", "setting": "[5]", "result": "produced a thermal hyperalgesia"}]}
